Blank lines part the entries; values can stand above or below the molecule they belong to.
What was measured:
hSPHK1 [1] = biological target: T1, hSPHK1 (Homo sapiens, UniProt Q9NYA1); assay: SPHK-dependent phosphorylation of sphingosine analogs and other lipids (substrate specificity of hSPHK1); format: biochemical; details: lipid 50 μM, lysates of HEK293 cells transfected with hSPHK1 as enzyme source
T1 construct: to obtain the full-length cDNA of hSPHK1; expressed in transfected cells; host or cells: HEK293
Description: (§1) Cytosolic sphingosine kinase activity was determined with 50 μM sphingosine dissolved in Triton X-100 (final concentration 0.25%) and […] (10 μCi, 1 mM) containing MgCl2 (10 mM). In some studies, sphingosine was added as a complex with bovine serum albumin (BSA). Specific activity was expressed as pmol SPP formed per minute per mg protein.
(§2) HEK293 cells were transfected with hSPHK1 and SPHK-dependent phosphorylation of various sphingosine analogs or other lipids (50 μM) was measured using cell lysates as enzyme source. DAG, diacylglycerol; PI, phosphatidylinositol; C2-CER, N-acetyl—sphingosine. […] SPHK activity in HEK293 cell lysates 24 h after transfection with hSPHK1 was measured with 10 μM […] in the absence or presence of 20 μM and 40 μM DMS or DHS. Data are means±SD and are expressed as percent inhibition.

hSPHK1 [2] = biological target: T1, hSPHK1; assay: Inhibition of SPHK activity in lysates of HEK293 cells transfected with hSPHK1; format: biochemical; details: for inhibition of hSPHK1: 20 μM and 40 μM inhibitor, 10 μM SPP (so in the source), HEK293 lysates 24 h after transfection
Description: as §1, §2

mouse melanoma B10 cells = details: low nanomolar concentrations of SPP; also SPP immobilized on glass beads; cited from earlier work
c-myc-SPHK = assay: Cytosolic c-myc-SPHK activity in transfected NIH 3T3 fibroblasts; format: cell-based
Description: as §1

[3] = substrate: CCCCCCCCCCCCC/C=C/[C@@H](O)[C@@H](N)CO; assay: SPHK-dependent phosphorylation of sphingosine analogs and other lipids (substrate specificity of hSPHK1); format: biochemical, human; details: other: D-erythro-sphingosine as substrate
Description: as §1, §2

substrate of hSPHK1 (SPHK-dependent phosphorylation) (hSPHK1 [1]; listed as D-(+)-erythro-trans-isomer of sphingosine): best substrates
Molecule: CCCCCCCCCCCCC/C=C/[C@@H](O)[C@@H](N)CO [D-erythro-sphingosine]
substrate of hSPHK1 (SPHK-dependent phosphorylation) (hSPHK1 [1]): more efficiently phosphorylated than sphingamine

substrate of hSPHK1 (SPHK-dependent phosphorylation) (hSPHK1 [1]): best substrates
Molecule: CCCCCCCCCCCCCCC[C@H](O)[C@H](N)CO [erythrodihydrosphingosine]

substrate of hSPHK1 (SPHK-dependent phosphorylation) (hSPHK1 [1]): not substrates
Molecule: diacylglycerol

substrate of hSPHK1 (SPHK-dependent phosphorylation) (hSPHK1 [1]): not substrates
Molecule: phosphatidylinositol

Continued, molecule first:

Molecule: CCCCCCCCCCCCC/C=C/[C@@H](O)[C@H](CO)NC(C)=O [C2-ceramide, N-acetyl—sphingosine]
substrate of hSPHK1 (SPHK-dependent phosphorylation) (hSPHK1 [1]): not substrates

Molecule: CCCCCCCCCCCCCCC[C@H](O)[C@@H](N)CO [DHS, D,L-threo-dihydrosphingosine]
substrate of hSPHK1 (SPHK-dependent phosphorylation) (hSPHK1 [1]): not substrates
inhibition of hSPHK1 (hSPHK1 [2]): inhibited hSPHK1
inhibition of hSPHK1 (hSPHK1 [2]; listed as D,L-threo-dihydro-sphingosine): inhibitors of hSPHK1
relative inhibitory potency on hSPHK1 (hSPHK1 [2]; DHS compared with DMS): slightly more potent thank DMS

Molecule: CCCCCCCCCCCCC/C=C/[C@@H](O)[C@@H](N)COP(=O)(O)O [SPP, Sphingosine-1-phosphate]
effect on cell motility (mouse melanoma B10 cells): inhibited the motility

Molecule: N,N-dimethylsphingosine [DMS]
inhibition of hSPHK1 (hSPHK1 [2]): inhibitors of hSPHK1
inhibition of hSPHK1 (hSPHK1 [2]; listed as CMS): inhibited hSPHK1

Molecule: PDGF
effect on cytosolic c-myc-SPHK activity (c-myc-SPHK): stimulated

B1: hSPHK1 (Homo sapiens) (protein)
chain: MDPAGGPRGVLPRPCRVLVLLNPRGGKGKALQLFRSHVQPLLAEAEISFTLMLTERRNHARELVRSEELGRWDALVVMSGDGLMHEVVNGLMERPDWETAIQKPLCSLPAGSGNALAASLNHYAGYEQVTNEDLLTNCTLLLCRRLLSPMNLLSLHTASGLRLFSVLSLAWGFIADVDLESEKYRRLGEMRFTLGTFLRLAALRTYRGRLAYLPVGRVGSKTPASPVVVQQGPVDAHLVPLEEPVPSHWTVVPDEDFVLVLALLHSHLGSEMFAAPMGRCAAGVMHLFYVRAGVSRAMLLRLFLAMEKGRHMEYECPYLVYVPVVAFRLEPKDGKGVFAVDGELMVSEAVQGQVHPNYFWMVSGCVEPPPSWKPQQMPPPEEPL
notes: to obtain the full-length cDNA of hSPHK1; expressed in transfected cells; host or cells: HEK293
Km [3]: 5 µM

— patent US6830916B2, “Sphingosine kinase, cloning, expression and methods of use” (priority 2000, dated 2004)
